Consider 1 compound from patent US10912780B2, “Heterocyclic compounds useful as anti-bacterial agents and method for production thereof” (Bugworks Research, Inc., priority 2017, dated 2021).

What is called IC50 is the concentration needed to halve the response being measured. In general, MIC50 refers to the lowest concentration that inhibits either 50% of growth or 50% of the strains tested, depending on the study. The low end stands for higher susceptibility, the high end for lower susceptibility. One may read the MIC90 as an inhibitory concentration at the 90% level, which refers to growth in some studies and to a panel of isolates in others.

Converted amounts (≈) assume the structure as drawn. “And” between values parts separate entries of the source, which are not always exact repeats. Identical values can stand only once.

Data set [1] in a line: Stability of IV formulation at room temperature. The data set is classed as physicochemical. The note with it: IV formulation in 10% L-ascorbic acid, pH~4. As to the method:
Procedure: Weighed appropriate amount of the Example 15 to be tested and dissolved in 1 ml of the 10% ascorbic acid solution. (Vortex for a few seconds if the compound doesn't dissolve instantly). Sonicated the compound solution at room temperature for 5 minutes using a bath sonicator to obtain a visually clear solution. The above prepared solution was pH adjusted to pH˜4 with 1N NaOH solution (w/v) with sonication (final Formulation pH˜4).

The target in another data set is E. coli topoisomerase IV (Escherichia coli, UniProt P0AFI2+P20083). The data set is described as follows: biochemical. The conditions noted are these: decatenation assay; read-out: E. coli Topo IV IC50.
In data set [2] the test system is Enterococcus faecalis ATCC 29212. The data set is described as follows: Minimum Inhibitory Concentration (MIC) in LB media. The data set is classed as cell-based. The conditions noted are these: Enterococcus faecalis, ATCC29212, read-out: Minimum Inhibitory Concentration E. faecalis ATCC 29212. The method in brief: (§1)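 Broth microdilution in LB using cultures grown to OD600 0.8 to 1; compounds tested as twofold dilutions from a 4 mg/ml DMSO stock. Plates incubated overnight at 37° C., growth read by absorbance at 600 nm to give MIC.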

Data set [3] relates to Staphylococcus aureus ATCC 29213. The data set is described as follows: Minimum Inhibitory Concentration (MIC) in LB media. The data set is classed as cell-based. The conditions noted are these: Staphylococcus aureus, ATCC29213, read-out: Minimum Inhibitory Concentration S. aureus ATCC 29213. The method in brief:
as §1

In data set [4] the test system is Pseudomonas aeruginosa ATCC 27853. The data set is described as follows: Minimum Inhibitory Concentration (MIC) in LB media. The data set is classed as cell-based. The conditions noted are these: Pseudomonas aeruginosa, ATCC27853, read-out: Minimum Inhibitory Concentration P. aeruginosa ATCC 27853. In outline: as §1
The subject of data set [5] is Escherichia coli ATCC 25922. The data set is described as follows: Minimum Inhibitory Concentration (MIC) in LB media. The data set is classed as cell-based. The conditions noted are these: Escherichia coli, ATCC25922, read-out: Minimum Inhibitory Concentration E. coli ATCC 25922. The method in brief: as §1
Data set [6] deals with Klebsiella pneumoniae ATCC 13883. The data set is described as follows: Minimum Inhibitory Concentration (MIC) in LB media. The data set is classed as cell-based. The note with it: Klebsiella pneumoniae, ATCC13883, read-out: Minimum Inhibitory Concentration K. pneumoniae ATCC 13883. The method in brief:
as §1

A further data set concerns E. coli clinical strains. The data set is described as follows: Antibacterial susceptibility studies (MIC50 and MIC90) with clinical strains, CLSI guidelines. The data set is classed as cell-based.
Data set [7] deals with K. pneumoniae [ATCC13883]. The data set is described as follows: Neutropenic thigh infection model in rat. The data set is classed as in vivo. The conditions noted are these: for Log 10 CFU/g thigh: individual animals. As to the method: Example 15 was tested in rat thigh infection model following intravenous infusion of compound at doses of 100 mg/kg once, 30 mg/kg once daily over a period of 1 hr to assess its efficacy. This study was performed following all ethical practices as laid down in the guidelines for animal care (Registration number No. 1852/PO/Rc/S/16/CPCSEA). The study was approved by the Institutional Animals Ethics Committee (IAEC) of the test facility. The formulation used was 10% of L-ascorbic acid in fresh MilliQ water (w/v) with pH adjusted to ˜4.0 with 1N NaOH. On Day −4 (4 days prior to the desired date of infection), each rat was dosed with a single intra-peritoneal injection of cyclophosphamide equivalent to 150 mg/kg, and returned to its cage. On Day−1 (a day prior to infection) each rat received a dose equivalent to 100 mg/kg of Cyclophosphamide. This procedure ensured that animals will be neutropenic on day 0. […] The inoculum was serially diluted ten-fold in sterile CSDB broth and 0.05 ml of six dilutions were plated onto CSDA agar plates to determine the viable count (CFU/ml) of inoculum. All animals were divided into different groups as specified in the experimental design for each microorganism. All infections were conducted in a biological safety cabinet, with appropriate personnel protection. […] A gentle shaking/mixing of inoculum between two animals was followed for uniform distribution.
Two hours post infection, animals in groups 4, 5 and 6 were administered intravenously with example 15, as a constant rate infusion (duration of infusion 1 h), under Ketamine 60 mg/kg IP+Xylazine 10 mg/kg IP anesthesia, at a dose volume of 10 ml/kg, at the rate of 0.16 ml/min. The dose levels of Example 15 were 10, 30 and 100 mg/kg. […] The total duration of the study was 10 h.
Animals were sacrificed 10 hr post infection and thigh tissues were harvested to enumerate the bacterial CFU count. Thigh muscles were aseptically excised, weighed, and placed into 1 ml of sterile CSDB broth, and homogenized (Omni Tip (220 V hand held)). Serial ten-fold dilutions of the thigh homogenates were prepared in sterile lactose broth and 0.05 mL of four dilutions for each thigh was plated onto CSDA agar plates. Bacterial colonies were enumerated following overnight incubation at […]. Bacterial densities were estimated as Log 10 CFU/gram thigh. The Mean±SD Log 10 CFU/gram thigh was estimated in each group. Significant differences between group means and control will be analyzed by One way ANOVA, followed by a Dunnett's multiple comparison test, using Graphpad Prism at 95% confidence levels. A P value of <0.05 was considered as significant.

The mark [8] stands for this setting: 10 mg/kg, i.v., 1 h infusion, neutropenic rat, 10 hr post infection.
[9] abbreviates: 30 mg/kg, i.v., 1 h infusion, neutropenic rat, 10 hr post infection.

Sequence of E. coli topoisomerase IV (P20083 whole entry): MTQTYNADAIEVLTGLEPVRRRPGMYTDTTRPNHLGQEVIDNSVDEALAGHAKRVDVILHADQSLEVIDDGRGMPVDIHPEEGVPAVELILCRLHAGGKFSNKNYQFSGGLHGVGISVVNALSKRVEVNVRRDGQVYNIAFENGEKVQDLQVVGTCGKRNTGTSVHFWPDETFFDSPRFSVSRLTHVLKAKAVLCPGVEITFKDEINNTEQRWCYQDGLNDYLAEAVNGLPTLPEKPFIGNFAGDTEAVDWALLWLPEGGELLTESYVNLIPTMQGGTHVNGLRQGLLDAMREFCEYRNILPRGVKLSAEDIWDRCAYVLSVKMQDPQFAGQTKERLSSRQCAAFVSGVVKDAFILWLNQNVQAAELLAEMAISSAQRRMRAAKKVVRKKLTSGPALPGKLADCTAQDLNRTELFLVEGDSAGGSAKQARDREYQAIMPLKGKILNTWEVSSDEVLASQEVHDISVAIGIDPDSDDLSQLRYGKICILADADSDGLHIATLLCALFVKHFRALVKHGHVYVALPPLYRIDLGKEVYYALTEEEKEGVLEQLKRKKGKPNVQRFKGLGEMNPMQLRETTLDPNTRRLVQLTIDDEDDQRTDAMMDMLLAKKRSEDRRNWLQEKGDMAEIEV
Sequence of E. coli topoisomerase IV (P0AFI2 whole entry): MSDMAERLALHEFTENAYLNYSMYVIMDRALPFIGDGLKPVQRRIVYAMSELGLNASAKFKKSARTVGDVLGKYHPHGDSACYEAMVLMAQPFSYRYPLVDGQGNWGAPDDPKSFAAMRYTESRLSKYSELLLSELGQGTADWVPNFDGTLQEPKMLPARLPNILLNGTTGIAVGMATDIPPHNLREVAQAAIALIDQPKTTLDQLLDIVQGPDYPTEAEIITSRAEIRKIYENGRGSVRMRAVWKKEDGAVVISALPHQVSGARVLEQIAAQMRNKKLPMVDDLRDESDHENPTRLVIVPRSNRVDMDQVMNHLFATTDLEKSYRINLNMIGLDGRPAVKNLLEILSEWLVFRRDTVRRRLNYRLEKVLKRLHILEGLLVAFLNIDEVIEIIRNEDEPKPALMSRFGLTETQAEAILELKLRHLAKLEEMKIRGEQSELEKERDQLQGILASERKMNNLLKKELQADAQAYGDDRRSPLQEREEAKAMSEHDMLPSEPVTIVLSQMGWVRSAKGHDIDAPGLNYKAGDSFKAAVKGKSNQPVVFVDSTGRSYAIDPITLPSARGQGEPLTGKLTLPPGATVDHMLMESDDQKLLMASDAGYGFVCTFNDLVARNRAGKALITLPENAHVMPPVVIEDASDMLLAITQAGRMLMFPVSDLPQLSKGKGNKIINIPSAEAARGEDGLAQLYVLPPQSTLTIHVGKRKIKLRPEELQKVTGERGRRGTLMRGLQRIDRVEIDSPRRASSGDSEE

`Cn1c(=O)ccc2ccc(F)c(CCNC[C@H]3CN(c4cnc5c(n4)NC(=O)CO5)C(=O)O3)c21` [Example 15, (S)-6-(5-(((2-(7-fluoro-1-methyl-2-oxo-1,2-dihydroquinolin-8-yl)ethyl)amino)methyl)-2-oxooxazolidin-3-yl)-2H-pyrazino[2,3-b][1,4]oxazin-3(4H)-one]: the “IV formulation stable at room temperature” value in [1] is recorded as “more than 24 hours”. Further, at E. coli topoisomerase IV, the IC50 stood at 10 nM. The MIC in [2] is 0.06 µg/mL (≈ 0.128 µM); in data set [3] it was at most 0.015 µg/mL; in data set [4], 0.25 µg/mL (≈ 0.534 µM); in data set [5], 0.03 µg/mL (≈ 0.064 µM); in data set [6] it was 0.03 µg/mL (≈ 0.064 µM). In the data set on E. coli clinical strains (E. coli reference strain ATCC25922, no unit in this line (MIC50/MIC90 lines: μg/ml)), this compound gave an MIC ATCC25922 of 0.06 µg/mL (≈ 0.128 µM). The compound also displayed an MIC50 against E. coli clinical strains (Escherichia coli) of 0.06 µg/mL (≈ 0.128 µM). Further, the MIC90 with E. coli clinical strains (Escherichia coli) turned out to be 0.25 µg/mL (≈ 0.534 µM). Moreover, the Minimum in the data set with E. coli clinical strains (lowest MIC among E. coli clinical strains (201 strains; Example 15: 176), no unit in this line) came to 0.03. Besides, the “MEAN ± SD (Log 10 CFU/g thigh)” value is 2.91 ± 0.24 Log 10 CFU/g thigh in data set [7] (setting [8]) and 2.22 ± 0.50 Log 10 CFU/g thigh in data set [7] (setting [9]). For the same compound, in [7] (setting [9]), the “Mean Log10CFU/g thigh reduction (wrt 2 h PI control: 4.72 Log10CFU/g thigh)” value turned out to be 2.50 Log10CFU/g thigh. The “Log 10 CFU/g thigh” value is 3.18 Log 10 CFU/g thigh and 2.85 Log 10 CFU/g thigh and 2.71 Log 10 CFU/g thigh in data set [7] (setting [8]); 1.92 Log 10 CFU/g thigh and 1.94 Log 10 CFU/g thigh and 2.8 Log 10 CFU/g thigh in data set [7] (setting [9]). The “efficacy with respect to 2 h Post Infection (PI) control (in words)” value in [7] (rat thigh model, 10 and 30 mg/kg) is “significant dose dependent efficacy”. Moreover, the “efficacy versus standard drug (in words)” value in [7] (rat thigh model, similar dose (10 mg/kg)) was “comparable to standard drug ciprofloxacin”.
